Data as given in ChEMBL document CHEMBL5120862, “Novel non-covalent LSD1 inhibitors endowed with anticancer effects in leukemia and solid tumor cellular models” (Eur J Med Chem, 2022).
Activity calls are given as the source filed them. The calls are words filed in the database; no cut-off is given here.

What was measured:
[1] = test system: THP-1; assay: Antiproliferative activity against human THP-1 cells assessed as inhibition of cell growth incubated for 72 hrs by CellTiter-Glo luminescent cell viability assay; assay type: functional, cell-based; settings: THP-1, 72 h
[2] = biological target: T1, MAO-B (amine oxidase [flavin-containing] B) (Homo sapiens, UniProt P27338); assay: Inhibition of human MAO-B using p-tyramine as substrate at 100 uM by fluorimetric analysis relative to control; settings: human MAO-B enzyme, probe p-tyramine
T1 sequence (P27338 whole entry): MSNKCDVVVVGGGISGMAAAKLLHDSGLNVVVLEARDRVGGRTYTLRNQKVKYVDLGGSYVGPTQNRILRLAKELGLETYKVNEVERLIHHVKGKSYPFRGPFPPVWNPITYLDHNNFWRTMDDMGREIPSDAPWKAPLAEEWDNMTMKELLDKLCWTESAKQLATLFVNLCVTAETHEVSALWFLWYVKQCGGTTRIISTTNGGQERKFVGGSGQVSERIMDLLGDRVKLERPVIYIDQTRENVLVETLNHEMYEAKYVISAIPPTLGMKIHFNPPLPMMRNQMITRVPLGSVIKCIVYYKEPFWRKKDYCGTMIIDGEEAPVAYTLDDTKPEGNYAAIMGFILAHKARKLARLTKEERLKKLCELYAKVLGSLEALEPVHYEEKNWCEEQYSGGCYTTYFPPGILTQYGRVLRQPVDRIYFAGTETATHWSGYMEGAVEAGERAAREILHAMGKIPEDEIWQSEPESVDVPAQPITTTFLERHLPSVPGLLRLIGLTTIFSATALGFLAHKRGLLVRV

[3] = biological target: Histone-lysine N-methyltransferase EZH2 (Homo sapiens) (UniProt Q15910); assay: Inhibition of EZH2 (unknown origin) using [3H]SAM and chicken core histone as substrates at 100 uM incubated for 1 hr relative to control
[4] = test system: THP-1; assay: Antiproliferative activity against human THP-1 cells assessed as inhibition of cell growth incubated for 24 hrs by CellTiter-Glo luminescent cell viability assay; assay type: functional, cell-based; settings: THP-1, 24 h
[5] = biological target: T2, MAO-A (amine oxidase [flavin-containing] A) (Homo sapiens, UniProt P21397); assay: Inhibition of human MAO-A using p-tyramine as substrate at 100 uM by fluorimetric analysis relative to control; settings: human MAO-A enzyme, probe p-tyramine
T2 sequence (P21397 whole entry): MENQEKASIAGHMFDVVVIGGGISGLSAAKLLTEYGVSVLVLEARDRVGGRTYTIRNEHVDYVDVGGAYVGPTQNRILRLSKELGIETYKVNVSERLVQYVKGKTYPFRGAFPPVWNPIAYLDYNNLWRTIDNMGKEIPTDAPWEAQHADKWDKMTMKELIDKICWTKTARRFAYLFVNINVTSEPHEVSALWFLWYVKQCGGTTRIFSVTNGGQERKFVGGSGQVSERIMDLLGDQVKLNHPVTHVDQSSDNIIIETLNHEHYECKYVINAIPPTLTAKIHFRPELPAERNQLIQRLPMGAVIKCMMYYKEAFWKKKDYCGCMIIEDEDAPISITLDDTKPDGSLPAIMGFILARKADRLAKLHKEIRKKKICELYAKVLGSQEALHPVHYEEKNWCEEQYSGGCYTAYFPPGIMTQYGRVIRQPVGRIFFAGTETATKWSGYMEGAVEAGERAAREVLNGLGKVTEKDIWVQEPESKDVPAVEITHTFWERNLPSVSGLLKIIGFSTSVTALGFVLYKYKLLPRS

[6] = biological target: T3, Histone-lysine N-methyltransferase EHMT2 (Homo sapiens, UniProt Q96KQ7); assay: Inhibition of G9a (unknown origin) assessed as reduction in substrate methylation using histone H3 and SAM as substrate measured after 15 to 60 mins by microfluidic capillary electrophoresis analysis
T3 sequence (Q96KQ7 whole entry): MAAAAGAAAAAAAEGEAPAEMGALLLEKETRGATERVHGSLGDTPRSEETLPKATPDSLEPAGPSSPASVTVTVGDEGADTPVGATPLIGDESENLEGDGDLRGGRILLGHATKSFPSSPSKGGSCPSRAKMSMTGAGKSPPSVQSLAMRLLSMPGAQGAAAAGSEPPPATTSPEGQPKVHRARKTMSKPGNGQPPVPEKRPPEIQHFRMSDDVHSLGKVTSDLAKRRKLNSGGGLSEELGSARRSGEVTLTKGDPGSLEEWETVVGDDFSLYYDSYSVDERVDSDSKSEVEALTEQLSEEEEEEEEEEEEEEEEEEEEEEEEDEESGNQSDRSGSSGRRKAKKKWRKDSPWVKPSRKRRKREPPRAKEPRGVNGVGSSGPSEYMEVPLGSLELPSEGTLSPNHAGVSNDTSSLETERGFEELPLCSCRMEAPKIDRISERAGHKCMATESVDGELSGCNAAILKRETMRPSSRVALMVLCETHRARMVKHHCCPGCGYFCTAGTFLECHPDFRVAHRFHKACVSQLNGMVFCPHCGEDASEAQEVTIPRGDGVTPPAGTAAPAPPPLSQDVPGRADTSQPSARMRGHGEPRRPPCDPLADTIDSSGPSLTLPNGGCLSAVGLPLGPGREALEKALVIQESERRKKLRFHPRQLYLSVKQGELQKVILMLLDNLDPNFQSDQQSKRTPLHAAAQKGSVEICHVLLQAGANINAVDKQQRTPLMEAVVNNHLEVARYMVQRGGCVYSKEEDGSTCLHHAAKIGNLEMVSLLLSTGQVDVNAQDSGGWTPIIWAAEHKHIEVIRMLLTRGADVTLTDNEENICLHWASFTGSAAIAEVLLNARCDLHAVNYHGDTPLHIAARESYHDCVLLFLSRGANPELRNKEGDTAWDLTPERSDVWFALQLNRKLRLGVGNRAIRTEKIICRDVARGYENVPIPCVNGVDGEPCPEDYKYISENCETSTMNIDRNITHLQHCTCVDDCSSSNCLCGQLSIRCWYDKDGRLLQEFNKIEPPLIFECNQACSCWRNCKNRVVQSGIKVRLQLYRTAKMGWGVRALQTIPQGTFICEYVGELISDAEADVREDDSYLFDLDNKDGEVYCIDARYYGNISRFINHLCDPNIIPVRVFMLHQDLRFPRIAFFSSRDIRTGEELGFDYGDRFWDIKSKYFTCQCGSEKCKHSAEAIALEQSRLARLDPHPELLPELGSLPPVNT

[7] = test system: MDA-MB-231; assay: Antiproliferative activity against human MDA-MB-231 cells assessed as inhibition of cell growth measured after 72 hrs by MTT assay; assay type: functional, cell-based; settings: MDA-MB-231, 72 h
[8] = test system: THP-1; assay: Antiproliferative activity against human THP-1 cells assessed as inhibition of cell growth incubated for 144 hrs by CellTiter-Glo luminescent cell viability assay; assay type: functional, cell-based; settings: THP-1, 144 h
[9] = biological target: Histone-lysine N-methyltransferase, H3 lysine-79 specific (Homo sapiens) (UniProt Q8TEK3); assay: Inhibition of […] (unknown origin) using [3H]SAM and HeLa oligo nucleosomes as substrates at 100 uM incubated for 1 hr relative to control
[10] = biological target: T4, LSD1/CoREST complex (Homo sapiens, UniProt O60341); assay: Inhibition of human LSD1/CoREST using histone H3 peptide as substrate by fluorescence polarization assay; assay type: protein-complex assay
[11] = test system: SJRH30; assay: Antiproliferative activity against human Rh30 cells assessed as inhibition of cell growth incubated for 24 hrs; assay type: functional, cell-based; settings: SJRH30, 24 h
[12] = test system: RD; assay: Antiproliferative activity against human RD cells assessed as inhibition of cell growth incubated for 72 hrs; assay type: functional, cell-based
[13] = test system: RD; assay: Antiproliferative activity against human RD cells assessed as inhibition of cell growth incubated for 24 hrs; assay type: functional, cell-based
[14] = biological target: T4, LSD1/CoREST complex; assay: Binding affinity to human LSD1/CoREST assessed as dissociation constant by competitive fluorescence polarization assay; assay type: protein-complex assay
[15] = test system: RD; assay: Antiproliferative activity against human RD cells assessed as reduction in live cells at 10 uM incubated for 72 hrs by calceinAM/propidium iodide staining based fluorescence microscopy; assay type: functional, cell-based
[16] = test system: SJRH30; assay: Antiproliferative activity against human Rh30 cells assessed as inhibition of cell growth incubated for 72 hrs; assay type: functional, cell-based; settings: SJRH30, 72 h
[17] = test system: SJRH30; assay: Antiproliferative activity against human Rh30 cells assessed as inhibition of cell growth incubated for 144 hrs; assay type: functional, cell-based; settings: SJRH30, 144 h
[18] = test system: SJRH30; assay: Antiproliferative activity against human Rh30 cells assessed as reduction in live cells at 10 uM incubated for 24 hrs by calceinAM/propidium iodide staining based fluorescence microscopy; assay type: functional, cell-based
[19] = test system: SJRH30; assay: Induction of apoptosis in human Rh30 cells assessed as increase in caspase 3/7 level at 10 uM incubated for 24 hrs; assay type: functional, cell-based
[20] = test system: RD; assay: Antiproliferative activity against human RD cells assessed as inhibition of cell growth incubated for 144 hrs; assay type: functional, cell-based
[21] = test system: RD; assay: Antiproliferative activity against human RD cells assessed as reduction in live cells at 3.5 uM incubated for 72 hrs by calceinAM/propidium iodide staining based fluorescence microscopy; assay type: functional, cell-based
[22] = test system: SJRH30; assay: Induction of apoptosis in human Rh30 cells assessed as increase in caspase 3/7 level at 3.5 uM incubated for 24 hrs; assay type: functional, cell-based
[23] = test system: SJRH30; assay: Antiproliferative activity against human Rh30 cells assessed as reduction in live cells at 3.5 uM incubated for 24 hrs by calceinAM/propidium iodide staining based fluorescence microscopy; assay type: functional, cell-based

Sequence of Histone-lysine N-methyltransferase EZH2 (Homo sapiens) (Q15910 whole entry, looked up): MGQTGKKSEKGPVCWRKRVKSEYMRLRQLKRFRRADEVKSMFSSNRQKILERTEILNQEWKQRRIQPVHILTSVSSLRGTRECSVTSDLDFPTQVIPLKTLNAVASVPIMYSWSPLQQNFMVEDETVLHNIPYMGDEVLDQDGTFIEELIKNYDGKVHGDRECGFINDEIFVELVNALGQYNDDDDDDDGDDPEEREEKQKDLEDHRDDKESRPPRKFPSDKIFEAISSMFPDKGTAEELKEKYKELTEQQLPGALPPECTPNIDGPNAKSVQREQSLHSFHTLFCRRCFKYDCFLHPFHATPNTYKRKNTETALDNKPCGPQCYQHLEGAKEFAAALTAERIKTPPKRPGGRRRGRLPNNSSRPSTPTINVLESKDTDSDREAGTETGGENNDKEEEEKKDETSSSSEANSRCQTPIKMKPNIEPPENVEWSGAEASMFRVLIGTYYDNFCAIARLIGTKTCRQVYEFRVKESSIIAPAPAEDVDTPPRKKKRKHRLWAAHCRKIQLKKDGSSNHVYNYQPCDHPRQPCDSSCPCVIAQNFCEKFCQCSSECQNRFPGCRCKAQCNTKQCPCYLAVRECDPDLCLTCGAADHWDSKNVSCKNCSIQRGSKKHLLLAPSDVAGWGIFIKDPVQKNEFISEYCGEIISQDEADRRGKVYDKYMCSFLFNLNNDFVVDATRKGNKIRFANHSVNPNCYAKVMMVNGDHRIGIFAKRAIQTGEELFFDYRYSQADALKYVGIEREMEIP
Sequence of Histone-lysine N-methyltransferase, H3 lysine-79 specific (Homo sapiens) (Q8TEK3 whole entry, looked up): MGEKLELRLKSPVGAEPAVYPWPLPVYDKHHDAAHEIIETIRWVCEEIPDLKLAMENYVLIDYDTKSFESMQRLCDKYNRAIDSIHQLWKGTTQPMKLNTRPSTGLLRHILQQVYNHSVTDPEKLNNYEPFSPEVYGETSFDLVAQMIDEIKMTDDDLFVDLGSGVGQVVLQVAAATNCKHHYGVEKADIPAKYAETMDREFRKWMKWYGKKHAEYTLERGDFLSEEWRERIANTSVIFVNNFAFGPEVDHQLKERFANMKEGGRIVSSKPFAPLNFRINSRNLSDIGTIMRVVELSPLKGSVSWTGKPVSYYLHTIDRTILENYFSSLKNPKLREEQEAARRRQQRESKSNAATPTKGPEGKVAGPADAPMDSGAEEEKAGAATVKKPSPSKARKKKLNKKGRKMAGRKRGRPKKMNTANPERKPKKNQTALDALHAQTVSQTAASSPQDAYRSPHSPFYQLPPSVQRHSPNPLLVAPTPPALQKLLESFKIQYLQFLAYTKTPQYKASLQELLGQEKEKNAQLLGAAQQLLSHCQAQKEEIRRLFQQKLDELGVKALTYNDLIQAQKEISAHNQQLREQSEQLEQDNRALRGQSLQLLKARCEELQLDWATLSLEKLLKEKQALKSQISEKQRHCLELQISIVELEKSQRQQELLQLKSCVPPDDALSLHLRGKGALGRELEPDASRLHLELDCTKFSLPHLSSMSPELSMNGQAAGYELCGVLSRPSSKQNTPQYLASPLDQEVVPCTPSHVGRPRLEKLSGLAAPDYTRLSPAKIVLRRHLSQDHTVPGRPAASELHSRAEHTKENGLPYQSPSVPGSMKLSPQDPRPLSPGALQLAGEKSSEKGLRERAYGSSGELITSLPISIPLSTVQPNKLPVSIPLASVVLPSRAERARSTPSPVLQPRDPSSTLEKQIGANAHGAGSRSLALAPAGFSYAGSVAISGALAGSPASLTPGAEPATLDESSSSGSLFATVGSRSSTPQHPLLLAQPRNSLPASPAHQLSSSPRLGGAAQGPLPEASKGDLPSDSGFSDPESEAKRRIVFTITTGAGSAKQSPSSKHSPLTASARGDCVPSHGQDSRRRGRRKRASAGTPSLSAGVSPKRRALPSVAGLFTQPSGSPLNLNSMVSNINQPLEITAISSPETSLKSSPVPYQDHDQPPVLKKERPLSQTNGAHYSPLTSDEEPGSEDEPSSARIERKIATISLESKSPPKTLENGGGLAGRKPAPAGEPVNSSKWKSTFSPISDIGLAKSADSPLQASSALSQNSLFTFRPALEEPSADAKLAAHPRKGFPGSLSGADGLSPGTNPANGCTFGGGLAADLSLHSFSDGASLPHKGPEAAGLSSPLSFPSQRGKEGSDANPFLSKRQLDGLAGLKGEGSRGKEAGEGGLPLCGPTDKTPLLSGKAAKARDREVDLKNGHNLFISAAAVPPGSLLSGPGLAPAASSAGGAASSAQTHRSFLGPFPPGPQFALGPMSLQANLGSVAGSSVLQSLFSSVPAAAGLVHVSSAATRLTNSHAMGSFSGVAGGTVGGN

Row | IC50 [1] | IC50 [4] | IC50 [7] | IC50 [8] | SMILES | IC50 [11] | IC50 [12] | IC50 [13] | IC50 [16] | IC50 [17] | IC50 [20] | further results
1 | 390 nM | 490 nM | 800 nM | 220 nM | COc1cc2nc(NCCCN(C)C)nc(NC3CCN(CCCc4ccccc4)CC3)c2cc1OC |  |  |  |  |  |  | inhibition at 100 µM [2]: 0.3%; inhibition [3]: 2.9%; inhibition at 100 µM [5]: 7.4%; Ki [6]: 690 nM; inhibition [9]: 30.3%
2 |  |  |  |  | Cc1ccc(-c2ncc(OC[C@@H]3CCNC3)cc2-c2ccc(C#N)cc2)cc1 | 9930 nM | 11400 nM | 12400 nM | 10700 nM | 10300 nM | 10200 nM | Ki [10]: 35 nM; Kd [14]: 14 nM; Activity [15]: Active; Activity [18]: Active; Activity [19]: Active
3 | 340 nM | 840 nM | 3560 nM | 240 nM | COc1cc2c(NC3CCN(C(C)C)CC3)nc(C3CCCCC3)nc2cc1OCCCN1CCCC1 | 5010 nM | 3050 nM | 11200 nM | 2640 nM | 2480 nM | 2910 nM | Activity [21]: Active; Activity [22]: Active; Activity [23]: Active
